Experimental data published in a compilation of properties of binary mixtures (doi:10.1016/j.fluid.2021.113175).

Experiment: xn = mol fraction of the nth substance listed
Details: 100 kPa

COP(=O)([O-])OC.C[N+]1(CCO)CCCC1 + CCO
viscosity [mPa·s]
Details	293.15 K	298.15 K	303.15 K	308.15 K	313.15 K	318.15 K	323.15 K	328.15 K	333.15 K	338.15 K
x1 = 0.0561	2.69	2.27	–	–	1.54	1.33	1.17	1.04	0.92	0.82
x1 = 0.1077	–	4.39	3.88	–	3.23	2.94	2.69	2.47	2.28	2.1
x1 = 0.1523	7.31	6.71	6.24	–	5.31	4.98	4.66	4.37	4.09	3.85
x1 = 0.2079	–	10.91	–	8.65	7.87	–	6.44	–	5.33	4.93
x1 = 0.2537	19.2	16.9	14.81	13.08	11.56	–	9.55	8.62	8	7.27
x1 = 0.3084	–	27.7	–	–	18.5	16.22	14.35	–	11.68	10.55
x1 = 0.4033	–	48.5	40.2	34.3	30	–	22.9	20.3	–	–
x1 = 0.5077	–	98.2	–	64.3	53.4	–	–	33.1	28	–
x1 = 0.6042	220	174	133.8	108.1	87.6	72.1	–	–	42	–
x1 = 0.7053	–	–	219	167	128.5	102.3	82.6	66.1	–	43.3
x1 = 0.8055	670	–	346	257	196	152.8	120.7	95	76.3	–
x1 = 0.9053	1030	722	512	374	–	212	163	128.6	102.4	80.5
x1 = 1	1452	981	687	496	366	–	210	162	127.5	96.7
